Test results reported in US6472348B1, “Pyridone derivatives and herbicides” (Kumiai Chemical Industry Co., Ltd., priority 1996, dated 2002).

tested on: monochoria (Mo); experiment: Test Example 1: herbicidal effects by paddy field soil treatment; assay type: in vivo; details: 100 g of the active ingredient per 10 ares, 21st day after the application, index 0-5 of Table 47;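 note: grade of growth control; 5 = at least 90%; 4 = 70 to 90%; 3 = 50 to 70%; 2 = 30 to 50%; 1 = 10 to 30%; 0 = under 10%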
Method in brief: (§1)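 Greenhouse pot test in flooded paddy soil, dosed at 100 g a.i. per 10 ares; effect scored on day 21.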

| SMILES | Herbicidal effects Mo |
| --- | --- |
| C#CCNC(=O)COc1cc(-c2ccc(C(F)(F)F)n(C)c2=O)c(F)cc1Cl [Compound 1-210] | 5 |
| Cn1c(C(F)(F)F)ccc(-c2cc(OCC(=O)O)c(Cl)cc2F)c1=O [1-105] | 5 |

tested on: barnyardgrass (Ec); experiment: as above; assay type: in vivo; details: 100 g of the active ingredient per 10 ares, 21st day after the application, index 0-5 of Table 47
Method in brief: as §1

| SMILES | Herbicidal effects Ec |
| --- | --- |
| C#CCNC(=O)COc1cc(-c2ccc(C(F)(F)F)n(C)c2=O)c(F)cc1Cl [Compound 1-210] | 5 |
| Cn1c(C(F)(F)F)ccc(-c2cc(OCC(=O)O)c(Cl)cc2F)c1=O [1-105] | 5 |

tested on: bulrush (Sc); experiment: as above; assay type: in vivo; details: 100 g of the active ingredient per 10 ares, 21st day after the application, index 0-5 of Table 47;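 note: grade of growth control; 5 = at least 90%; 4 = 70 to 90%; 3 = 50 to 70%; 2 = 30 to 50%; 1 = 10 to 30%; 0 = under 10%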
Method in brief: as §1

| SMILES | Herbicidal effects Sc |
| --- | --- |
| C#CCNC(=O)COc1cc(-c2ccc(C(F)(F)F)n(C)c2=O)c(F)cc1Cl [Compound 1-210] | 5 |
| Cn1c(C(F)(F)F)ccc(-c2cc(OCC(=O)O)c(Cl)cc2F)c1=O [1-105] | 5 |

tested on: barnyardgrass (Ec); experiment: Test Example 2: herbicidal effects by upland field soil treatment; assay type: in vivo; details: 100 g of the active ingredient per 10 ares, 21st day after the application, index 0-5 of Table 47;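 note: grade of growth control; 5 = at least 90%; 4 = 70 to 90%; 3 = 50 to 70%; 2 = 30 to 50%; 1 = 10 to 30%; 0 = under 10%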
Description: (§2) (Test on Herbicidal Effects by Upland Field Soil Treatment)

| SMILES | Herbicidal effects Ec |
| --- | --- |
| Cn1c(C(F)(F)F)ccc(-c2cc(OCC(=O)O)c(Cl)cc2F)c1=O [1-105] | 5 |

same assay, conditions: 100 g of the active ingredient per 10 ares, evaluated on the 21st day after application

| SMILES | Herbicidal effects Ec |
| --- | --- |
| C#CCNC(=O)COc1cc(-c2ccc(C(F)(F)F)n(C)c2=O)c(F)cc1Cl [Compound 1-210] | 5 |

tested on: common lambsquarters (Ch); experiment: as above; assay type: in vivo; details: 100 g of the active ingredient per 10 ares, 21st day after the application, index 0-5 of Table 47
Description: as §2

| SMILES | Herbicidal effects Ch |
| --- | --- |
| Cn1c(C(F)(F)F)ccc(-c2cc(OCC(=O)O)c(Cl)cc2F)c1=O [1-105] | 5 |

same assay, conditions: 100 g of the active ingredient per 10 ares, evaluated on the 21st day after application

| SMILES | Herbicidal effects Ch |
| --- | --- |
| C#CCNC(=O)COc1cc(-c2ccc(C(F)(F)F)n(C)c2=O)c(F)cc1Cl [Compound 1-210] | 5 |

tested on: pale smartweed (Po); experiment: as above; assay type: in vivo; details: 100 g of the active ingredient per 10 ares, 21st day after the application, index 0-5 of Table 47
Description: as §2

| SMILES | Herbicidal effects Po |
| --- | --- |
| Cn1c(C(F)(F)F)ccc(-c2cc(OCC(=O)O)c(Cl)cc2F)c1=O [1-105] | 5 |

same assay, conditions: 100 g of the active ingredient per 10 ares, evaluated on the 21st day after application

| SMILES | Herbicidal effects Po |
| --- | --- |
| C#CCNC(=O)COc1cc(-c2ccc(C(F)(F)F)n(C)c2=O)c(F)cc1Cl [Compound 1-210] | 5 |

tested on: slender amaranth (Am); experiment: as above; assay type: in vivo; details: 100 g of the active ingredient per 10 ares, 21st day after the application, index 0-5 of Table 47
Description: as §2

| SMILES | Herbicidal effects Am |
| --- | --- |
| Cn1c(C(F)(F)F)ccc(-c2cc(OCC(=O)O)c(Cl)cc2F)c1=O [1-105] | 5 |

same assay, conditions: 100 g of the active ingredient per 10 ares, evaluated on the 21st day after application

| SMILES | Herbicidal effects Am |
| --- | --- |
| C#CCNC(=O)COc1cc(-c2ccc(C(F)(F)F)n(C)c2=O)c(F)cc1Cl [Compound 1-210] | 5 |

tested on: rice flatsedge (Ci); experiment: as above; assay type: in vivo; details: 100 g of the active ingredient per 10 ares, 21st day after the application, index 0-5 of Table 47
Description: as §2

| SMILES | Herbicidal effects Ci |
| --- | --- |
| Cn1c(C(F)(F)F)ccc(-c2cc(OCC(=O)O)c(Cl)cc2F)c1=O [1-105] | 5 |

same assay, conditions: 100 g of the active ingredient per 10 ares, evaluated on the 21st day after application

| SMILES | Herbicidal effects Ci |
| --- | --- |
| C#CCNC(=O)COc1cc(-c2ccc(C(F)(F)F)n(C)c2=O)c(F)cc1Cl [Compound 1-210] | 5 |

tested on: Digitaria ciliaris (Di); experiment: as above; assay type: in vivo; details: 100 g of the active ingredient per 10 ares, 21st day after the application, index 0-5 of Table 47;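 note: grade of growth control; 5 = at least 90%; 4 = 70 to 90%; 3 = 50 to 70%; 2 = 30 to 50%; 1 = 10 to 30%; 0 = under 10%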
Description: as §2

| SMILES | Herbicidal effects Di |
| --- | --- |
| Cn1c(C(F)(F)F)ccc(-c2cc(OCC(=O)O)c(Cl)cc2F)c1=O [1-105] | 5 |

same assay, conditions: 100 g of the active ingredient per 10 ares, evaluated on the 21st day after application

| SMILES | Herbicidal effects Di |
| --- | --- |
| C#CCNC(=O)COc1cc(-c2ccc(C(F)(F)F)n(C)c2=O)c(F)cc1Cl [Compound 1-210] | 4 |

tested on: barnyardgrass (Ec); experiment: Test Example 3: herbicidal effects by upland field foliage treatment; assay type: in vivo; parameters: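 grade of growth control; 5 = at least 90%; 4 = 70 to 90%; 3 = 50 to 70%; 2 = 30 to 50%; 1 = 10 to 30%; 0 = under 10%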; details: 100 g active ingredient per 10 ares, evaluated 14th day after treatment
Method in brief: (§3)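 Post-emergence upland foliage test. Seedlings grown 2 weeks under glass in pots (120 cm^2) of sand, seed topped with soil; treated on the foliage, kept in greenhouse, then assessed at day 14 using rating standards.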

| SMILES | Herbicidal effects Ec |
| --- | --- |
| C#CCNC(=O)COc1cc(-c2ccc(C(F)(F)F)n(C)c2=O)c(F)cc1Cl [Compound 1-210] | 4 |

same assay, conditions: 100 g of the active ingredient per 10 ares, evaluated on the 14th day after treatment

| SMILES | Herbicidal effects Ec |
| --- | --- |
| Cn1c(C(F)(F)F)ccc(-c2cc(OCC(=O)O)c(Cl)cc2F)c1=O [1-105] | 5 |

tested on: common lambsquarters (Ch); experiment: as above; assay type: in vivo; parameters: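 grade of growth control; 5 = at least 90%; 4 = 70 to 90%; 3 = 50 to 70%; 2 = 30 to 50%; 1 = 10 to 30%; 0 = under 10%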; details: 100 g active ingredient per 10 ares, evaluated 14th day after treatment
Method in brief: as §3

| SMILES | Herbicidal effects Ch |
| --- | --- |
| C#CCNC(=O)COc1cc(-c2ccc(C(F)(F)F)n(C)c2=O)c(F)cc1Cl [Compound 1-210] | 5 |

same assay, conditions: 100 g of the active ingredient per 10 ares, evaluated on the 14th day after treatment

| SMILES | Herbicidal effects Ch |
| --- | --- |
| Cn1c(C(F)(F)F)ccc(-c2cc(OCC(=O)O)c(Cl)cc2F)c1=O [1-105] | 5 |

tested on: pale smartweed (Po); experiment: as above; assay type: in vivo; parameters: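 grade of growth control; 5 = at least 90%; 4 = 70 to 90%; 3 = 50 to 70%; 2 = 30 to 50%; 1 = 10 to 30%; 0 = under 10%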; details: 100 g active ingredient per 10 ares, evaluated 14th day after treatment
Method in brief: as §3

| SMILES | Herbicidal effects Po |
| --- | --- |
| C#CCNC(=O)COc1cc(-c2ccc(C(F)(F)F)n(C)c2=O)c(F)cc1Cl [Compound 1-210] | 5 |

same assay, conditions: 100 g of the active ingredient per 10 ares, evaluated on the 14th day after treatment

| SMILES | Herbicidal effects Po |
| --- | --- |
| Cn1c(C(F)(F)F)ccc(-c2cc(OCC(=O)O)c(Cl)cc2F)c1=O [1-105] | 5 |

tested on: slender amaranth (Am); experiment: as above; assay type: in vivo; parameters: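 grade of growth control; 5 = at least 90%; 4 = 70 to 90%; 3 = 50 to 70%; 2 = 30 to 50%; 1 = 10 to 30%; 0 = under 10%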; details: 100 g active ingredient per 10 ares, evaluated 14th day after treatment
Method in brief: as §3

| SMILES | Herbicidal effects Am |
| --- | --- |
| C#CCNC(=O)COc1cc(-c2ccc(C(F)(F)F)n(C)c2=O)c(F)cc1Cl [Compound 1-210] | 5 |

same assay, conditions: 100 g of the active ingredient per 10 ares, evaluated on the 14th day after treatment

| SMILES | Herbicidal effects Am |
| --- | --- |
| Cn1c(C(F)(F)F)ccc(-c2cc(OCC(=O)O)c(Cl)cc2F)c1=O [1-105] | 5 |

tested on: rice flatsedge (Ci); experiment: as above; assay type: in vivo; parameters: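 grade of growth control; 5 = at least 90%; 4 = 70 to 90%; 3 = 50 to 70%; 2 = 30 to 50%; 1 = 10 to 30%; 0 = under 10%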; details: 100 g active ingredient per 10 ares, evaluated 14th day after treatment
Method in brief: as §3

| SMILES | Herbicidal effects Ci |
| --- | --- |
| C#CCNC(=O)COc1cc(-c2ccc(C(F)(F)F)n(C)c2=O)c(F)cc1Cl [Compound 1-210] | 5 |

same assay, conditions: 100 g of the active ingredient per 10 ares, evaluated on the 14th day after treatment

| SMILES | Herbicidal effects Ci |
| --- | --- |
| Cn1c(C(F)(F)F)ccc(-c2cc(OCC(=O)O)c(Cl)cc2F)c1=O [1-105] | 5 |

tested on: Diaitaria ciliaris (Di); experiment: as above; assay type: in vivo; parameters: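 grade of growth control; 5 = at least 90%; 4 = 70 to 90%; 3 = 50 to 70%; 2 = 30 to 50%; 1 = 10 to 30%; 0 = under 10%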; details: 100 g active ingredient per 10 ares, evaluated 14th day after treatment
Method in brief: as §3

| SMILES | Herbicidal effects Di |
| --- | --- |
| C#CCNC(=O)COc1cc(-c2ccc(C(F)(F)F)n(C)c2=O)c(F)cc1Cl [Compound 1-210] | 5 |

same assay, conditions: 100 g of the active ingredient per 10 ares, evaluated on the 14th day after treatment

| SMILES | Herbicidal effects Di |
| --- | --- |
| Cn1c(C(F)(F)F)ccc(-c2cc(OCC(=O)O)c(Cl)cc2F)c1=O [1-105] | 5 |
